Where two headings read alike, the source gives them in different places.
Legend:
HIV-1 IIIB isolate = test: HIV-1 inhibitory effect, p24 antigen capture ELISA in acutely infected 174XCEM cells; type: cell-based; details: for anti-HIV-1 activity (p24 OD, FIG. 6) / inhibition of HIV infection (FIG. 7): 1 μg/ml; for anti-HIV-1 activity (p24 OD, FIG. 6): 4 days, compared with other betulinol derivatives; for dose-related anti-HIV effect (FIG. 8): doses of 0.5, 1 .5, and 2 μg/ml
[1] = test system: Human T-B hybridoma cell line 174XCEM; test: cell viability by trypan blue dye exclusion; type: cell-based; details: for effect on total cell number or cell viability: trypan blue at four days and seven days; for cell toxicity: doses of 0.5, 1 .5, and 2 μg/ml
Excerpt: Dimethyl sulfoxide (“DMSO”) buffer was used as “no virus” control.

another HIV-1 isolate = test: effect on 174XCEM cells chronically infected with another HIV-1 isolate; type: cell-based; details: single dose 1 μg/ml
Experimental: Agents were also evaluated for an effect on 174XCEM cells chronically infected with another HIV-1 isolate.

AZT-resistant HIV strain = test: anti-HIV activity against AZT-resistant patient isolates in MT-2 cells; type: cell-based
Excerpt: These isolates were used to infect MT-2 cells in vitro.

[2] = solubility in DMSO diluted with culture medium, GC against standard curve; type: physicochemical
Experimental: The residue was dissolved in chloroform analyzed on GC.
Ethyl ether was then evaporated.

[3] = solubilization in PBS containing human γ-globulin, human albumin and ethanol; type: physicochemical; details: 1 × 10^−3 mol/L
[4] = solubility in human serum; type: physicochemical; details: 1.34 mg in 31 μL ethanol and 700 μL human serum
[5] = tolerability of solubilized drug in mice with prostate cancer cell xenografts; type: in vivo; details: final concentration 22% ethanol and 2×10^−3 mol per liter of betulonic acid
cells = details: cited from earlier work
HIV = details: Sun et al., J. Med. Chem. 41:4648-4657 (1998); cited from earlier work
[6] = culture medium containing 20% DMSO, calculated from amount and volume

## C=C(C)[C@@H]1CC[C@]2(CO)CC[C@]3(C)[C@H](CC[C@@H]4[C@@]5(C)CC[C@H](OC(C)=O)C(C)(C)[C@@H]5CC[C@]43C)[C@@H]12 [3-acetoxy betulin]
HIV-1 IIIB isolate
  anti-HIV-1 activity (p24 OD, FIG. 6): superior
[1]
  effect on total cell number or cell viability: no effect

## C=C(C)C1CCC2(CO)CC[C@]3(C)[C@H](CC[C@@H]4[C@@]5(C)CCC(O)C(C)(C)[C@@H]5CC[C@]43C)C12 (stereo partly drawn) [betulinol, lup-20(29)-ene-3β, 28-diol]
HIV-1 IIIB isolate
  inhibition of HIV infection (FIG. 7): no effect
HIV-1 IIIB isolate; doses 1.3, 1.6, and 2 μg/ml
  dose-related anti-HIV effect (FIG. 9): increasing anti-HIV effect
Another HIV-1 isolate
  inhibition in chronically infected cells: minimal effect

## C=C(C)C1CCC2(COC)CCC3(C)C(CCC4C5(C)CCC(OC)C(C)(C)C5CCC43C)C12 (stereo not drawn) [betulin dimethyl ether]
HIV-1 IIIB isolate
  anti-HIV-1 activity (p24 OD, FIG. 6): superior
[1]
  effect on total cell number or cell viability: no effect

## C=C(C)[C@@H]1CC[C@]2(COC(C)=O)CC[C@]3(C)[C@H](CC[C@@H]4[C@@]5(C)CC[C@H](O)C(C)(C)[C@@H]5CC[C@]43C)[C@@H]12 [28-acetoxy betulin]
HIV-1 IIIB isolate
  anti-HIV-1 activity (p24 OD, FIG. 6): superior
HIV-1 IIIB isolate; doses 0.5, 1, 1.5, and 2 μg/ml
  dose-related anti-HIV-1 activity (FIG. 10): comparable anti-HIV-1 activity
[1]
  effect on total cell number or cell viability: no effect

## Cc1cn([C@H]2C[C@H](N=[N+]=[N-])[C@@H](CO)O2)c(=O)[nH]c1=O [AZT, 3′-azido-3′-deoxythymidine, reference compound]
AZT-resistant HIV strain; day 8
  inhibition in the HIV infection: ineffective

## C=C(C)[C@@H]1CC[C@]2(C=O)CC[C@]3(C)[C@H](CC[C@@H]4[C@@]5(C)CCC(=O)C(C)(C)[C@@H]5CC[C@]43C)[C@@H]12 [betulone aldehyde]
HIV-1 IIIB isolate
  inhibition of HIV infection (FIG. 7): 37%
  dose-related anti-HIV effect (FIG. 8): Progressive increases in anti-HIV effect
[1]
  cell toxicity: without cell toxicity
Another HIV-1 isolate
  inhibition in chronically infected cells: minimal effect

## C=C(C)C1CCC2(C(=O)NCCCCC(NC(=O)C(CCCCNC(=O)C34CCC(C(=C)C)C3[C@@H]3CC[C@H]5[C@]6(C)CCC(=O)C(C)(C)[C@H]6CC[C@]5(C)[C@@]3(C)CC4)NC(=O)OC(C)(C)C)C(=O)O)CC[C@]3(C)[C@H](CC[C@@H]4[C@@]5(C)CCC(=O)C(C)(C)[C@@H]5CC[C@]43C)C12 (stereo partly drawn) [Boc-Dimer]
[2]; [6]
  Concentration of drug (mg/mL): 0.6 mg/mL
  Concentration of drug (mol/L): 0.0005 mol/L

## C=C(C)C1CCC2(C(=O)O)CC[C@]3(C)[C@H](CC[C@@H]4[C@@]5(C)CCC(=O)C(C)(C)[C@@H]5CC[C@]43C)C12 (stereo partly drawn) [betulonic acid]
[2]; out of 3 mg, 1% DMSO in culture medium containing 10% FBS, nominal 0.5 mg/mL
  amount of betulonic acid dissolved: 0.4 mg
[3]; γ-globulin in PBS 0 mL, albumin in PBS 2.50 mL, ethanol 280 μL
  Observation: Complete
[3]; γ-globulin in PBS 0.32 mL, albumin in PBS 2.85 mL, ethanol 352 μL
  Observation: Clear
[3]; γ-globulin in PBS 0.69 mL, albumin in PBS 2.07 mL, ethanol 308 μL
  Observation: Almost Clear
[3]; γ-globulin in PBS 1.48 mL, albumin in PBS 0.49 mL, ethanol 220 μL
  Observation: Cloudy
[3]; γ-globulin in PBS 1.48 mL, albumin in PBS 1.48 mL, ethanol 330 μL
  Observation: Little Cloudy
[3]; γ-globulin in PBS 2.50 mL, albumin in PBS 0 mL, ethanol 280 μL
  Observation: Suspension
[4]
  Observation: Clear Solution
[5]
  tolerability: well tolerated
AZT-resistant HIV strain; day 5
  inhibition in the HIV infection: 56%
AZT-resistant HIV strain; day 8
  inhibition in the HIV infection: 44%
cells
  cytotoxicity: cytotoxic

## C=C(C)[C@@H]1CC[C@]2(COC(C)=O)CC[C@]3(C)[C@H](CC[C@@H]4[C@@]5(C)CC[C@H](OC(C)=O)C(C)(C)[C@@H]5CC[C@]43C)[C@@H]12 [betulin diacetate]
HIV-1 IIIB isolate
  inhibition of HIV infection (FIG. 7): 57%
  dose-related anti-HIV effect (FIG. 8): Progressive increases in anti-HIV effect
[1]
  cell toxicity: without cell toxicity
Another HIV-1 isolate
  inhibition in chronically infected cells: 20%
HIV
  therapeutic index: low therapeutic index

## C=C(C)C1CCC2(C(=O)NCCCCC(NC(=O)OC(C)(C)C)C(=O)O)CC[C@]3(C)[C@H](CC[C@@H]4[C@@]5(C)CCC(=O)C(C)(C)[C@@H]5CC[C@]43C)C12 (stereo partly drawn) [Boc-Monomer]
[2]
  Concentration of drug (mg/mL): 0.7 mg/mL
[5]
  tolerability: well tolerated
